Results on 21 compounds are retold here after US9365522B2, “Pyrazole amide derivative” (AMGEN INC., priority 2015, dated 2016).

For the assay, the target named is T1, human RORγ-LBD (Homo sapiens, UniProt P51449).
T1 construct: made in house; host or cells: E. coli (BL-21)
T1 sequence (P51449 262-518): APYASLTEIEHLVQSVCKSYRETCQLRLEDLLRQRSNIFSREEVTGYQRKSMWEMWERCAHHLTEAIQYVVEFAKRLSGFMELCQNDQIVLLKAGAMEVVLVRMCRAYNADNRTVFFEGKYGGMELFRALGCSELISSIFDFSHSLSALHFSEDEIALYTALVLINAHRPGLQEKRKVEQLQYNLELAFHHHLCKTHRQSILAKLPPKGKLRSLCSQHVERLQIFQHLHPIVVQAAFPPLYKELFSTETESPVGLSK
Kind of assay: ROR gamma coactivator peptide recruitment Alphascreen assay (RORγ-LBD binding to GRIP1 coactivator peptide). The assay is classed as biochemical. The note with it: 5 nM human RORγ-LBD, 30 nM 7-β-hydroxycholesterol, 50 nM biotinylated GRIP1 coactivator peptide, overnight incubation at room temperature; read-out: result (pIC50, RORγ coactivator peptide recruitment Alphascreen assay) (converted). The procedure, abridged: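 His/Flag-tagged human RORγ-LBD (aa 262-518, E. coli-expressed, 5 nM) with agonist 7-β-hydroxycholesterol (30 nM) and biotinylated GRIP1 LXXLL peptide (50 nM) in HEPES pH 7.4 buffer, 2.5% DMSO. Compound 1-in-2 dilutions; Alphascreen bead signal read after overnight incubation at room temperature; pIC50 calculated.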
On the technique in general: Alpha assays give light when donor and acceptor beads are brought close together.

For `Cc1cc(Cl)c(C(=O)CN(C(=O)c2cnn([C@H]3CC[C@](C)(C(=O)O)CC3)c2C(F)(F)F)[C@H]2C[C@@H](C(C)(C)C)C2)c(Cl)c1` [Example 689, trans-4-(4-((2-(2,6-dichloro-4-methylphenyl)-2-oxoethyl)(cis-3-(2-methyl-2-propanyl)cyclobutyl)carbamoyl)-5-(trifluoromethyl)-1H-pyrazol-1-yl)-1-methylcyclohexanecarboxylic acid], the IC50 was 4.17 nM.
On to `C[C@]1(C(=O)O)CC[C@H](n2ncc(C(=O)N(CC(=O)c3c(Cl)cc(F)cc3Cl)CC3(F)CC3)c2C(F)(F)F)CC1` [Example 690, trans-4-(4-((2-(2,6-dichloro-4-fluorophenyl)-2-oxoethyl)((1-fluorocyclopropyl)methyl)carbamoyl)-5-(trifluoromethyl)-1H-pyrazol-1-yl)-1-methylcyclohexanecarboxylic acid], for which the IC50 is 6.76 nM.
Take `CC1(CN(CC(=O)c2c(Cl)cc(F)cc2Cl)C(=O)c2cnn([C@H]3CC[C@](C)(C(=O)O)CC3)c2C(F)(F)F)CCC1` [Example 691, trans-4-(4-((2-(2,6-dichloro-4-fluorophenyl)-2-oxoethyl)((1-methylcyclobutyl)methyl)carbamoyl)-5-(trifluoromethyl)-1H-pyrazol-1-yl)-1-methylcyclohexanecarboxylic acid]: the IC50 was 1.66 nM.
As for `CC(C)(CN(CC(=O)c1c(Cl)cncc1Cl)C(=O)c1cnn([C@H]2CC[C@](C)(C(=O)O)CC2)c1C(F)(F)F)C(F)(F)F` [Example 692, trans-4-(4-((2-(3,5-dichloro-4-pyridinyl)-2-oxoethyl)(3,3,3-trifluoro-2,2-dimethylpropyl)carbamoyl)-5-(trifluoromethyl)-1H-pyrazol-1-yl)-1-methylcyclohexanecarboxylic acid], the IC50 is 3.24 nM.
The value for `Cc1cc(C)c(C(=O)CN(CC(C)(C)C)C(=O)c2cnn([C@H]3CC[C@](C)(C(=O)O)CC3)c2C(F)(F)F)c(Cl)n1` [Example 693, trans-4-(4-((2-(2-chloro-4,6-dimethyl-3-pyridinyl)-2-oxoethyl)(2,2-dimethylpropyl)carbamoyl)-5-(trifluoromethyl)-1H-pyrazol-1-yl)-1-methylcyclohexanecarboxylic acid] was 43.7 nM; that for `C[C@]1(C(=O)O)CC[C@H](n2ncc(C(=O)N(CC(=O)c3c(Cl)cc(F)cc3Cl)CC3CCC3)c2C(F)(F)F)CC1` [Example 694, trans-4-(4-((cyclobutylmethyl)(2-(2,6-dichloro-4-fluorophenyl)-2-oxoethyl)carbamoyl)-5-(trifluoromethyl)-1H-pyrazol-1-yl)-1-methylcyclohexanecarboxylic acid] was 3.98 nM; that for `C[C@]1(C(=O)O)CC[C@H](n2ncc(C(=O)N(CC(=O)c3c(Cl)cc(F)cc3Cl)CC3CC3)c2C(F)(F)F)CC1` [Example 695, trans-4-(4-((cyclopropylmethyl)(2-(2,6-dichloro-4-fluorophenyl)-2-oxoethyl)carbamoyl)-5-(trifluoromethyl)-1H-pyrazol-1-yl)-1-methylcyclohexanecarboxylic acid] was 10 nM.
The figure for `CC1(CN(CC(=O)c2c(Cl)cc(F)cc2Cl)C(=O)c2cnn([C@H]3CC[C@](C)(C(=O)O)CC3)c2C(F)(F)F)CCCCC1` [Example 696, trans-4-(4-((2-(2,6-dichloro-4-fluorophenyl)-2-oxoethyl)((1-methylcyclohexyl)methyl)carbamoyl)-5-(trifluoromethyl)-1H-pyrazol-1-yl)-1-methylcyclohexanecarboxylic acid] is 1.62 nM; for `CC(C)(C)CN(CC(=O)c1c(Cl)cnc(Cl)c1Cl)C(=O)c1cnn([C@H]2CC[C@](C)(C(=O)O)CC2)c1C(F)(F)F` [Example 697, trans-4-(4-((2,2-dimethylpropyl)(2-oxo-2-(2,3,5-trichloro-4-pyridinyl)ethyl)carbamoyl)-5-(trifluoromethyl)-1H-pyrazol-1-yl)-1-methylcyclohexanecarboxylic acid] it is 12.9 nM; for `C[C@]1(C(=O)O)CC[C@H](n2ncc(C(=O)N(CC(=O)c3c(Cl)cc(F)cc3Cl)CC3CCCC3)c2C(F)(F)F)CC1` [Example 698, trans-4-(4-((cyclopentylmethyl)(2-(2,6-dichloro-4-fluorophenyl)-2-oxoethyl)carbamoyl)-5-(trifluoromethyl)-1H-pyrazol-1-yl)-1-methylcyclohexanecarboxylic acid] it is 2.09 nM.
The value for `CC(C)(C)[C@H]1C[C@@H](N(CC(=O)c2c(Cl)cncc2Cl)C(=O)c2cnn([C@H]3CC[C@](C)(C(=O)O)CC3)c2C(F)(F)F)C1` [Example 699, trans-4-(4-((2-(3,5-dichloro-4-pyridinyl)-2-oxoethyl)(cis-3-(2-methyl-2-propanyl)cyclobutyl)carbamoyl)-5-(trifluoromethyl)-1H-pyrazol-1-yl)-1-methylcyclohexanecarboxylic acid] was 39.8 nM.
Turning to `CC(C)CCN(CC(=O)c1c(Cl)cncc1Cl)C(=O)c1cnn([C@H]2CC[C@](C)(C(=O)O)CC2)c1C(F)(F)F` [Example 700, trans-4-(4-((2-(3,5-dichloro-4-pyridinyl)-2-oxoethyl)(3-methylbutyl)carbamoyl)-5-(trifluoromethyl)-1H-pyrazol-1-yl)-1-methylcyclohexanecarboxylic acid], the IC50 was 13.2 nM.
The figure for `Cc1cc(C)c(C(=O)CN(Cc2cc(F)cc(F)c2)C(=O)c2cnn([C@H]3CC[C@](C)(C(=O)O)CC3)c2C(F)(F)F)c(Cl)n1` [Example 702, trans-4-(4-((2-(2-chloro-4,6-dimethyl-3-pyridinyl)-2-oxoethyl)(3,5-difluorobenzyl)carbamoyl)-5-(trifluoromethyl)-1H-pyrazol-1-yl)-1-methylcyclohexanecarboxylic acid] is 7.94 nM; for `Cc1cc(Cl)c(C(=O)CN(CC2(F)CC2)C(=O)c2cnn([C@H]3CC[C@](C)(C(=O)O)CC3)c2C(F)(F)F)c(Cl)n1` [Example 703, trans-4-(4-((2-(2,4-dichloro-6-methyl-3-pyridinyl)-2-oxoethyl)((1-fluorocyclopropyl)methyl)carbamoyl)-5-(trifluoromethyl)-1H-pyrazol-1-yl)-1-methylcyclohexanecarboxylic acid] it is 70.8 nM.
The figure for `Cc1cc(Cl)c(C(=O)CN(CCC(C)C)C(=O)c2cnn([C@H]3CC[C@](C)(C(=O)O)CC3)c2C(F)(F)F)c(Cl)c1` [Example 704, trans-4-(4-((2-(2,6-dichloro-4-methylphenyl)-2-oxoethyl)(3-methylbutyl)carbamoyl)-5-(trifluoromethyl)-1H-pyrazol-1-yl)-1-methylcyclohexanecarboxylic acid] is 2.45 nM; for `C[C@H]1CC[C@H](CN(CC(=O)c2c(Cl)cncc2Cl)C(=O)c2cnn([C@H]3CC[C@](C)(C(=O)O)CC3)c2C(F)(F)F)O1` [Example 705, trans-4-(4-((2-(3,5-dichloro-4-pyridinyl)-2-oxoethyl)(((2R,5S)-5-methyltetrahydro-2-furanyl)methyl)carbamoyl)-5-(trifluoromethyl)-1H-pyrazol-1-yl)-1-methylcyclohexanecarboxylic acid] it is 58.9 nM.
The value for `C[C@@H]1CC[C@@H](CN(CC(=O)c2c(Cl)cncc2Cl)C(=O)c2cnn([C@H]3CC[C@](C)(C(=O)O)CC3)c2C(F)(F)F)O1` [Example 706, trans-4-(4-((2-(3,5-dichloro-4-pyridinyl)-2-oxoethyl)(((2S,5R)-5-methyltetrahydro-2-furanyl)methyl)carbamoyl)-5-(trifluoromethyl)-1H-pyrazol-1-yl)-1-methylcyclohexanecarboxylic acid] was 32.4 nM; that for `Cc1cc(Cl)c(C(=O)CN(CC2CC2)C(=O)c2cnn([C@H]3CC[C@](C)(C(=O)O)CC3)c2C(F)(F)F)c(Cl)c1` [Example 707, trans-4-(4-((cyclopropylmethyl)(2-(2,6-dichloro-4-methylphenyl)-2-oxoethyl)carbamoyl)-5-(trifluoromethyl)-1H-pyrazol-1-yl)-1-methylcyclohexanecarboxylic acid] was 6.17 nM; that for `Cc1cc(Cl)c(C(=O)CN(CC2(C)CCCC2)C(=O)c2cnn([C@H]3CC[C@](C)(C(=O)O)CC3)c2C(F)(F)F)c(Cl)c1` [Example 709, trans-4-(4-((2-(2,6-dichloro-4-methylphenyl)-2-oxoethyl)((1-methylcyclopentyl)methyl)carbamoyl)-5-(trifluoromethyl)-1H-pyrazol-1-yl)-1-methylcyclohexanecarboxylic acid] was 0.891 nM.
For `C[C@]1(C(=O)O)CC[C@H](n2ncc(C(=O)N(CC(=O)c3c(Cl)cncc3Cl)CC3CC3)c2C(F)(F)F)CC1` [Example 710, trans-4-(4-((cyclopropylmethyl) (2-(3,5-dichloro-4-pyridinyl)-2-oxoethyl)carbamoyl)-5-(trifluoromethyl)-1H-pyrazol-1-yl)-1-methylcyclohexanecarboxylic acid], the IC50 is 27.5 nM.
The figure for `CC1(CN(CC(=O)c2c(Cl)cncc2Cl)C(=O)c2cnn([C@H]3CC[C@](C)(C(=O)O)CC3)c2C(F)(F)F)CCCC1` [Example 711, trans-4-(4-((2-(3,5-dichloro-4-pyridinyl)-2-oxoethyl)((1-methylcyclopentyl)methyl)carbamoyl)-5-(trifluoromethyl)-1H-pyrazol-1-yl)-1-methylcyclohexanecarboxylic acid] is 2.04 nM.
